{
  "source": "ChEMBL document CHEMBL4828780",
  "about": "“Novel Compounds for Preventing SARS-CoV-2 Viral Replication and Treating COVID-19” (ACS Med Chem Lett, 2021)",
  "test": "Inhibition of SARS-CoV 3C-like protease using Dabcyl-KTSAVLQ-SGFRKME-Edans peptide as substrate incubated for 60 mins by FRET assay",
  "note": "pKi: −log10 of the molar value.",
  "data": [
    {"smiles": "COc1cccc2[nH]c(C(=O)N[C@@H](CC(C)C)C(=O)N[C@@H](C[C@@H]3CCNC3=O)C(=O)COC(=O)c3ccncc3)cc12", "values": [
      {"measurement": "pKi", "result": 9.22}
    ]},
    {"smiles": "COc1cccc2[nH]c(C(=O)N[C@@H](CC(C)C)C(=O)N[C@@H](C[C@@H]3CCNC3=O)C(=O)COC(=O)[C@H]3CCCCN3C)cc12", "values": [
      {"measurement": "pKi", "result": 8.85}
    ]},
    {"smiles": "COc1cccc2[nH]c(C(=O)N[C@@H](CC(C)C)C(=O)N[C@@H](C[C@@H]3CCNC3=O)C(=O)COC(=O)[C@H]3CCCN3C)cc12", "values": [
      {"measurement": "pKi", "result": 10.49}
    ]},
    {"smiles": "COc1cccc2[nH]c(C(=O)N[C@@H](CC(C)C)C(=O)N[C@@H](C[C@@H]3CCNC3=O)C(=O)COC(=O)c3c(C)ncnc3C)cc12", "values": [
      {"measurement": "pKi", "result": 9.03}
    ]},
    {"smiles": "COc1cccc2[nH]c(C(=O)N[C@@H](CC(C)C)C(=O)N[C@@H](C[C@@H]3CCNC3=O)C(=O)COC(=O)[C@@H]3CCCN3C)cc12", "values": [
      {"measurement": "pKi", "result": 8.61}
    ]},
    {"smiles": "COc1cccc2[nH]c(C(=O)N[C@@H](CC(C)C)C(=O)N[C@@H](C[C@@H]3CCNC3=O)C(=O)COC(=O)CN(C)C)cc12", "values": [
      {"measurement": "pKi", "result": 8.53}
    ]}
  ]
}
